Results reported in patent publication US3970648A, “2-[2-(5-Nitro-2-furyl)vinyl]-4-(anilino)quinazolines” (Diamond Shamrock Corporation, priority 1974, dated 1976).

How the values were obtained:
Format in all cases: cell-based
[1] = test system: Escherichia coli; assay: Bactericide test, Escherichia coli (agar streak plate)
Source text: (§1) Test formulations were examined for bactericidal and/or bacteriostatic activity against the test organisms shown in Tables A and B. These organisms were chosen as being representative of commercially important pathogens affecting animal agriculture. The antibiotic chlortetracycline was chosen as a positive control, since it has a broad spectrum of activity against a large number of organisms, and its activity can be used for comparative purposes.
(§2) Basic test formulations of the product of Examples I, II, III, and of chlortetracycline were prepared by dissolving 16 mg (0.016 g) in 2.0 ml of stock emulsifier solution (0.25% Triton X-155 in acetone by volume) and making each solution up to 50 ml with deionized water. The concentration of the test compound in the basic formulation was 320 ppm. Lower concentrations of the test compound were obtained by diluting the basic formulation with a 4% solution of the stock emulsifier in deionized water so that each dilution in the series differed only in test compound content.
(§3) Nutrient-tryptic soy agar (NTA) consisting of 2.0% Difco Bactoagar 0.8% nutrient broth (Difco), and 0.5% tryptic soy broth (Difco) was prepared and sterilized by autoclaving. A 2 ml aliquot of each test formulation was added to 8 ml of molten NTA. This mixture was then plated in a sterile polystyrene petri dish (100 × 15 mm). After the agar was set, suspensions of each of the test organisms were simultaneously streaked onto the surface of the agar. The inoculated plates were incubated for 48 hr at 28°C. The inhibition of growth of each organism was rated by visual comparison with the organism developing on non-treated agar. Growth inhibition reported as per cent control was rated in three categories as follows: 0% control, growth equivalent to that on non-treated agar; 50% control, sparse development and separated colonies; 100% control, no visible growth or development of colonies.
(§4) Test formulations of the product of Example IV were examined for bactericidal and/or bacteriostatic activity against the test organisms shown in Table B using the Bactericide Test described in Example V. The inhibition of organism growth with each diluted test formulation was rated visually by comparison with the organism developing on a non-treated control agar plate. Growth inhibition reported as per cent control was rated in three categories as follows: 0% control, growth equivalent to that on non-treated agar; 50% control is sparse development and separated colonies; and 100% control, development of individual colonies was not apparent.

[2] = test system: Salmonella gallinarum; assay: Bactericide test, Salmonella gallinarum (agar streak plate); conditions: Salmonella enterica, GALLINARUM
How it was run: (§5)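 Compounds in Triton X-155/acetone emulsifier (basic formulation 320 ppm, diluted serially) were mixed 2:8 into molten nutrient-tryptic soy agar, then organisms streaked on the set plates. After 48 hr at 28°C, growth was scored visually against untreated agar as 0%, 50% (sparse, separated colonies) or 100% control (no visible colonies).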

[3] = test system: Streptococcus agalactiae; assay: Bactericide test, Streptococcus agalactiae (agar streak plate)
How it was run: (§6)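 Compounds were formulated with Triton X-155/acetone emulsifier (basic formulation 320 ppm, serially diluted) and mixed 2:8 into molten nutrient-tryptic soy agar. Organisms were streaked onto the plates and incubated 48 hr at 28°C. Growth inhibition was scored visually against untreated agar as 0, 50 or 100% control.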

[4] = test system: Salmonella typhimurium; assay: Bactericide test, Salmonella typhimurium (agar streak plate); conditions: Salmonella enterica, TYPHIMURIUM
Source text: as §1, §2, §3

[5] = test system: Vibrio coli; assay: Bactericide test, Vibrio coli (agar streak plate)
How it was run: as §6

[6] = test system: Staphylococcus aureus; assay: Bactericide test, Staphylococcus aureus (agar streak plate); conditions: Staphylococcus aureus
Source text: as §1, §2, §3, §4

[7] = test system: Bordetella bronchiseptica; assay: Bactericide test, Bordetella bronchiseptica (agar streak plate)
How it was run: as §6

[8] = test system: Erysipelothrix rhusiopathiae; assay: Bactericide test, Erysipelothrix rhusiopathiae (agar streak plate)
How it was run: as §6

[9] = test system: Streptococcus faecalis; assay: Bactericide test, Streptococcus faecalis (agar streak plate)
How it was run: as §5

[10] = test system: Salmonella cholerasuis; assay: Bactericide test, Salmonella cholerasuis (agar streak plate); conditions: Salmonella
How it was run: as §5

[11] = test system: Streptococcus group E; assay: Bactericide test, Streptococcus group E (agar streak plate)
How it was run: as §6

[12] = 100% inhibition at lower concentrations

`O=[N+]([O-])c1ccc(C=Cc2nc(Nc3cccc(O)c3)c3ccccc3n2)o1` [Example II, 2-[2-(5-nitro-2-furyl)vinyl]-4-(m-hydroxyanilino)quinazoline] gave an inhibition at 0.125 ppm ([1]; 0.125 ppm) of 0%, an inhibition at 0.25 ppm ([1]; 0.25 ppm) of 0% and an inhibition at 0.5 ppm ([1]; 0.5 ppm) of 0%. The inhibition at 1 ppm ([1]; 1 ppm, read-out: % Inhibition) was 0%, the inhibition at 2 ppm ([1]; 2 ppm) was 0% and the inhibition at 4 ppm ([1]; 4 ppm, read-out: % Inhibition) was 0%. For the same compound, the inhibition at 8 ppm ([1]; 8 ppm) was 0%, the inhibition at 16 ppm ([1]; 16 ppm, read-out: % Inhibition) was 0% and the inhibition at 32 ppm ([1]; 32 ppm) was 0%. The inhibition at 64 ppm ([1]; 64 ppm, read-out: % Inhibition) was 0%, the inhibition at 0.125 ppm ([2]; 0.125 ppm) was 0% and the inhibition at 0.25 ppm ([2]; 0.25 ppm) was 0%. For the same compound, the inhibition at 0.5 ppm ([2]; 0.5 ppm) was 0%, the inhibition at 1 ppm ([2]; 1 ppm) was 0% and the inhibition at 2 ppm ([2]; 2 ppm) was 0%. It also gave an inhibition at 4 ppm ([2]; 4 ppm) of 0%, an inhibition at 8 ppm ([2]; 8 ppm) of 0% and an inhibition at 16 ppm ([2]; 16 ppm) of 0%. The inhibition at 32 ppm ([2]; 32 ppm) was 0%, the inhibition at 64 ppm ([2]; 64 ppm) was 0% and the “effectiveness compared with chlortetracycline (in words)” value [3, 12] was “considerably more effective”. For the same compound, the inhibition at 0.125 ppm ([3]; Streptococcus agalactiae, 0.125 ppm) was 100%, the inhibition at 0.25 ppm ([3]; Streptococcus agalactiae, 0.25 ppm) was 100% and the inhibition at 0.5 ppm ([3]; Streptococcus agalactiae, 0.5 ppm) was 100%. It also gave an inhibition at 1 ppm ([3]; Streptococcus agalactiae, 1 ppm, read-out: % Inhibition) of 100%, an inhibition at 2 ppm ([3]; Streptococcus agalactiae, 2 ppm) of 100% and an inhibition at 4 ppm ([3]; Streptococcus agalactiae, 4 ppm, read-out: % Inhibition) of 100%. The inhibition at 8 ppm ([3]; Streptococcus agalactiae, 8 ppm) was 100%, the inhibition at 16 ppm ([3]; Streptococcus agalactiae, 16 ppm, read-out: % Inhibition) was 100% and the inhibition at 32 ppm ([3]; Streptococcus agalactiae, 32 ppm) was 100%. For the same compound, the inhibition at 64 ppm ([3]; Streptococcus agalactiae, 64 ppm, read-out: % Inhibition) was 100%, the inhibition at 0.125 ppm ([4]; 0.125 ppm) was 0% and the inhibition at 0.25 ppm ([4]; 0.25 ppm) was 0%. It also gave an inhibition at 0.5 ppm ([4]; 0.5 ppm) of 0%, an inhibition at 1 ppm ([4]; 1 ppm, read-out: % Inhibition) of 0% and an inhibition at 2 ppm ([4]; 2 ppm) of 0%. For the same compound, the inhibition at 4 ppm ([4]; 4 ppm, read-out: % Inhibition) was 0%, the inhibition at 8 ppm ([4]; 8 ppm) was 0% and the inhibition at 16 ppm ([4]; 16 ppm, read-out: % Inhibition) was 0%. For the same compound, the inhibition at 32 ppm ([4]; 32 ppm) was 0%, the inhibition at 64 ppm ([4]; 64 ppm, read-out: % Inhibition) was 0% and the “effectiveness compared with chlortetracycline (in words)” value [5, 12] was “considerably more effective”. The inhibition at 0.125 ppm ([5]; Campylobacter coli, 0.125 ppm) was 100%, the inhibition at 0.25 ppm ([5]; Campylobacter coli, 0.25 ppm) was 100% and the inhibition at 0.5 ppm ([5]; Campylobacter coli, 0.5 ppm) was 100%. It also gave an inhibition at 1 ppm ([5]; Campylobacter coli, 1 ppm) of 100%, an inhibition at 2 ppm ([5]; Campylobacter coli, 2 ppm) of 100% and an inhibition at 4 ppm ([5]; Campylobacter coli, 4 ppm) of 100%. It also gave an inhibition at 8 ppm ([5]; Campylobacter coli, 8 ppm) of 100%, an inhibition at 16 ppm ([5]; Campylobacter coli, 16 ppm) of 100% and an inhibition at 32 ppm ([5]; Campylobacter coli, 32 ppm) of 100%. It also gave an inhibition at 64 ppm ([5]; Campylobacter coli, 64 ppm) of 100%, an inhibition at 0.125 ppm ([6]; 0.125 ppm) of 0% and an inhibition at 0.25 ppm ([6]; 0.25 ppm) of 0%. The inhibition at 0.5 ppm ([6]; 0.5 ppm) was 0%, the inhibition at 1 ppm ([6]; 1 ppm, read-out: % Inhibition) was 0% and the inhibition at 2 ppm ([6]; 2 ppm) was 0%. It also gave an inhibition at 4 ppm ([6]; 4 ppm, read-out: % Inhibition) of 0%, an inhibition at 8 ppm ([6]; 8 ppm) of 0% and an inhibition at 16 ppm ([6]; 16 ppm, read-out: % Inhibition) of 0%. The inhibition at 32 ppm ([6]; 32 ppm) was 0%, the inhibition at 64 ppm ([6]; 64 ppm, read-out: % Inhibition) was 0% and the “effectiveness compared with chlortetracycline (in words)” value [7, 12] was “considerably more effective”. The inhibition at 0.125 ppm ([7]; Bordetella bronchiseptica, 0.125 ppm) was 0%, the inhibition at 0.25 ppm ([7]; Bordetella bronchiseptica, 0.25 ppm) was 0% and the inhibition at 0.5 ppm ([7]; Bordetella bronchiseptica, 0.5 ppm) was 0%. For the same compound, the inhibition at 1 ppm ([7]; Bordetella bronchiseptica, 1 ppm, read-out: % Inhibition) was 0%, the inhibition at 2 ppm ([7]; Bordetella bronchiseptica, 2 ppm) was 0% and the inhibition at 4 ppm ([7]; Bordetella bronchiseptica, 4 ppm, read-out: % Inhibition) was 0%. For the same compound, the inhibition at 8 ppm ([7]; Bordetella bronchiseptica, 8 ppm) was 0%, the inhibition at 16 ppm ([7]; Bordetella bronchiseptica, 16 ppm, read-out: % Inhibition) was 100% and the inhibition at 32 ppm ([7]; Bordetella bronchiseptica, 32 ppm) was 100%. For the same compound, the inhibition at 64 ppm ([7]; Bordetella bronchiseptica, 64 ppm, read-out: % Inhibition) was 100%, the “effectiveness compared with chlortetracycline (in words)” value [8, 12] was “considerably more effective” and the inhibition at 0.125 ppm ([8]; Erysipelothrix rhusiopathiae, 0.125 ppm) was 100%. For the same compound, the inhibition at 0.25 ppm ([8]; Erysipelothrix rhusiopathiae, 0.25 ppm) was 100%, the inhibition at 0.5 ppm ([8]; Erysipelothrix rhusiopathiae, 0.5 ppm) was 100% and the inhibition at 1 ppm ([8]; Erysipelothrix rhusiopathiae, 1 ppm) was 100%. The inhibition at 2 ppm ([8]; Erysipelothrix rhusiopathiae, 2 ppm) was 100%, the inhibition at 4 ppm ([8]; Erysipelothrix rhusiopathiae, 4 ppm) was 100% and the inhibition at 8 ppm ([8]; Erysipelothrix rhusiopathiae, 8 ppm) was 100%. The inhibition at 16 ppm ([8]; Erysipelothrix rhusiopathiae, 16 ppm) was 100%, the inhibition at 32 ppm ([8]; Erysipelothrix rhusiopathiae, 32 ppm) was 100% and the inhibition at 64 ppm ([8]; Erysipelothrix rhusiopathiae, 64 ppm) was 100%. The “effectiveness compared with chlortetracycline (in words)” value [9, 12] was “considerably more effective”, the inhibition at 0.125 ppm ([9]; Enterococcus faecalis, 0.125 ppm) was 0% and the inhibition at 0.25 ppm ([9]; Enterococcus faecalis, 0.25 ppm) was 50%. It also gave an inhibition at 0.5 ppm ([9]; Enterococcus faecalis, 0.5 ppm) of 100%, an inhibition at 1 ppm ([9]; Enterococcus faecalis, 1 ppm, read-out: % Inhibition) of 100% and an inhibition at 2 ppm ([9]; Enterococcus faecalis, 2 ppm) of 100%. The inhibition at 4 ppm ([9]; Enterococcus faecalis, 4 ppm, read-out: % Inhibition) was 100%, the inhibition at 8 ppm ([9]; Enterococcus faecalis, 8 ppm) was 100% and the inhibition at 16 ppm ([9]; Enterococcus faecalis, 16 ppm, read-out: % Inhibition) was 100%. It also gave an inhibition at 32 ppm ([9]; Enterococcus faecalis, 32 ppm) of 100%, an inhibition at 64 ppm ([9]; Enterococcus faecalis, 64 ppm, read-out: % Inhibition) of 100% and an inhibition at 0.125 ppm ([10]; 0.125 ppm) of 0%. For the same compound, the inhibition at 0.25 ppm ([10]; 0.25 ppm) was 0%, the inhibition at 0.5 ppm ([10]; 0.5 ppm) was 0% and the inhibition at 1 ppm ([10]; 1 ppm, read-out: % Inhibition) was 0%. The inhibition at 2 ppm ([10]; 2 ppm) was 0%, the inhibition at 4 ppm ([10]; 4 ppm, read-out: % Inhibition) was 0% and the inhibition at 8 ppm ([10]; 8 ppm) was 0%. It also gave an inhibition at 16 ppm ([10]; 16 ppm, read-out: % Inhibition) of 0%, an inhibition at 32 ppm ([10]; 32 ppm) of 0% and an inhibition at 64 ppm ([10]; 64 ppm, read-out: % Inhibition) of 0%. For the same compound, the inhibition at 0.125 ppm ([11]; 0.125 ppm) was 100%, the inhibition at 0.25 ppm ([11]; 0.25 ppm) was 100% and the inhibition at 0.5 ppm ([11]; 0.5 ppm) was 100%. It also gave an inhibition at 1 ppm ([11]; 1 ppm, read-out: % Inhibition) of 100%, an inhibition at 2 ppm ([11]; 2 ppm) of 100% and an inhibition at 4 ppm ([11]; 4 ppm, read-out: % Inhibition) of 100%. The inhibition at 8 ppm ([11]; 8 ppm) was 100%, the inhibition at 16 ppm ([11]; 16 ppm, read-out: % Inhibition) was 100% and the inhibition at 32 ppm ([11]; 32 ppm) was 100%. The inhibition at 64 ppm ([11]; 64 ppm, read-out: % Inhibition) was 100% and the “effectiveness compared with chlortetracycline (in words)” value [11, 12] was “considerably more effective”.
